Patent US5444042A, “Method of treatment of neurodegeneration with calpain inhibitors” (Cortex Pharmaceuticals, priority 1994, dated 1995)
“Also recorded” adds a separate entry of the source. Where two headings read alike, the source gives them in different places. Where a SMILES comes first, the peptide text is derived from it. The star is where a group is joined. Boc = CC(C)(C)OC(=O)*; CH2Cl = ClC*

Experiments:
[1] = tested on: Calpain in crude brain extracts; experiment: Ca2+-stimulated spectrin proteolysis in crude brain extracts (Example 2); format: biochemical; conditions: for inhibition of spectrin proteolysis in crude brain extracts: 100 μM
In short: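 Brain tissue was homogenized in 10 mM Tris pH 7.4, 0.32 M sucrose, 1 mM EGTA and 1 mM DTT, and nuclei and debris were removed. Calpain activity was scored as Ca^2+-stimulated proteolysis of endogenous spectrin.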

Calpain within platelets = experiment: Platelet membrane permeation assay, spectrin proteolysis (Examples 4A, 4B); format: cell-based, rat; conditions: for inhibition of Calpain within platelets: 100 μM, A23187 1 μM; for IC50: concentration at which 50% of the Calpain activation present in controls occurred
In short: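 Rat (Sprague-Dawley) platelets at 10^7 cells/ml in HEPES buffer pH 7.4, preincubated 5 min with inhibitor, then 5 min with 1 μM A23187 to activate calpain. Spectrin proteolysis assessed by SDS-PAGE and anti-spectrin immunoblot, quantified by densitometry.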

[2] = molecular target: T1, calpain II from rabbit muscle (Oryctolagus cuniculus, UniProt P06814); experiment: Calpain II Ki (Table 1B(i)); format: biochemical
T1 sequence (P06814 1-422): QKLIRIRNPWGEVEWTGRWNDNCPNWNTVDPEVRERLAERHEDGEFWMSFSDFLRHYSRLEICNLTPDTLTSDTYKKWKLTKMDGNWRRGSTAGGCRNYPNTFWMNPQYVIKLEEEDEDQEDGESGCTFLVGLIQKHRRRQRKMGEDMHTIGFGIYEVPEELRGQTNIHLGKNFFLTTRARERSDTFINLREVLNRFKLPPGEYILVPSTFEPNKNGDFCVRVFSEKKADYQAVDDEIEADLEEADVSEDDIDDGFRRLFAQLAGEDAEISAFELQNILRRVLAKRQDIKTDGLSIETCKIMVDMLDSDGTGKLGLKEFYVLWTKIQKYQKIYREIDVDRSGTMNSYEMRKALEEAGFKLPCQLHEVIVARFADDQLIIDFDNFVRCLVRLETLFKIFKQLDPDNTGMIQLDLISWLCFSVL
T1 sequence (P06813 1-266 partner): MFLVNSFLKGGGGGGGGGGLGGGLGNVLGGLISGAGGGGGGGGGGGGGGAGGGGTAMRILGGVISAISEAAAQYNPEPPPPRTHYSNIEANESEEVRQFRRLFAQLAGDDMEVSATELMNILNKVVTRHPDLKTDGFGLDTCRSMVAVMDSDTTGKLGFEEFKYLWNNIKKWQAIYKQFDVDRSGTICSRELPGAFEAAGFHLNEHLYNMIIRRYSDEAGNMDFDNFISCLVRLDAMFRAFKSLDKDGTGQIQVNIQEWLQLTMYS
Description: The Peptide Keto-Compounds are reversible inhibitors of Calpains and other thiol proteases. […] Cathepsin B from bovine spleen was assayed using Z-[…]-nitrophenylphosphate as substrate. […] The Ki value for the inhibition of Calpains and cathepsin B by several Peptide Keto-Compounds are shown in μM (micromolar). The values for leupeptin, which is commercially available from Calbiochem of La Jolla, Calif., are shown for comparison.

[3] = Suc-Leu-Tyr-amidomethylcoumarin, HEPES pH 7.2, read-out: Ki Calpain II

| SMILES | inhibition of spectrin proteolysis in crude brain extracts [1] | inhibition of Calpain within platelets (Calpain within platelets) | IC50 (Calpain within platelets) | Ki [2, 3] | inhibition in the system of Example 2 ([1]; concentration not given) | effect on intracellular (platelet) Calpain (Calpain within platelets; concentration not given) | Ki [2] |
| --- | --- | --- | --- | --- | --- | --- | --- |
| N=C(N)SCCCOc1oc(=O)c2cc(N)ccc2c1Cl [NH2 -CiTPrOIC (ACITIC), 7-amino-4-chloro-3-(3-isothiureidopropoxy)isocoumarin] | significant inhibition | significant inhibition |  |  |  |  |  |
| CCOC(=O)C(=O)C(Cc1ccccc1)NC(=O)C(CC(C)C)NC(=O)OCc1ccccc1 (stereo not drawn) [Z-Leu-Phe-COOEt] | significant inhibition | significant inhibition | 42 µM | 0.4 µM |  |  |  |
| CCOC(=O)C(=O)C(CC)NC(=O)[C@H](C)NC(=O)[C@H](C)NC(=O)OCc1ccccc1 (mixture of isomers) [Z-Ala-Ala-DL-Abu-COOEt, Z-Ala-Ala-DL-Abu-CO2 Et] | significant inhibition | significant inhibition |  | 200 µM |  |  |  |
| CCC(NC(=O)[C@@H]1CCCN1C(=O)[C@H](C)NC(=O)[C@H](C)NC(=O)CCC(=O)OC)C(=O)C(=O)OC (mixture of isomers) [MeO-Suc-Ala-Ala-Pro-Abu-COOMe, MeO-Suc-Ala-Ala-Pro-DL-Abu-CO2 Me] | significant inhibition | significant inhibition |  |  |  |  |  |
| CC(=O)N[C@@H](CC(C)C)C(=O)N[C@@H](CC(C)C)C(=O)N[C@H](C=O)CCCNC(=N)N [Leupeptin, Ac-Leu-Leu-Arg-H, reference compound] |  |  |  |  | showed inhibition | little effect; also recorded: failed to exhibit Calpain inhibitory activity | 0.43 µM |
| CCOC(=O)C(=O)[C@H](CC)NC(=O)[C@H](CC(C)C)NC(=O)OCc1ccccc1 (racemic) [Z-Leu-Abu-COOEt, Z-Leu-DL-Abu-COOEt] | significant inhibition | significant inhibition | 42 µM | 0.4 µM |  |  |  |
| N=C(N)SCCCOc1oc(=O)c2ccccc2c1Cl [CiTprOIC, 4-chloro-3-(3-isothiureidopropoxy)isocoumarin] | significant inhibition | significant inhibition |  |  |  |  |  |
| CC(C)CC(NC(=O)CNC(=O)OC(C)(C)C)C(=O)NC(Cc1ccccc1)C(=O)CCl (stereo not drawn) [Boc-Gly-Leu-Phe-CH2 Cl] (Boc-Gly-Leu-Phe-CH2Cl; configuration not given here) | significant inhibition | significant inhibition |  |  |  |  |  |
| CCCC(NC(=O)[C@H](CC(C)C)NC(=O)OCc1ccccc1)C(=O)C(=O)OCC (mixture of isomers) [Z-Leu-Nva-COOEt, Z-Leu-DL-Nva-COOEt] | significant inhibition | significant inhibition | 40 µM | 1.2 µM |  |  |  |
| CCCCC(NC(=O)C(CC(C)C)NC(=O)OCc1ccccc1)C(=O)C(=O)OCC (stereo not drawn) [Z-Leu-Nle-COOEt, Z-Leu-NLeu-CO2 Et] | significant inhibition | significant inhibition | 20 µM | 0.18 µM |  |  |  |
